Read-outs that look alike come from different tables or passages of the source. Bounds are passed on as bounds.

The subject of data set [1] is MV4-11. Put plainly: Primary HTS, single concentration, Cell Titer Glo. The class given is cell-based, human. The conditions noted are these: approximately 10 µM, 72 h, relative to positive control.
Data set [2] deals with CHRF288-11. Kind of data set: Secondary dose-response HTS, Cell Titer Glo. The class given is cell-based, human. The conditions noted are these: secondary HTS, 72 h, average of triplicate; read-out: EC50 CHRF288-11.
Data set [3] has as its system M07e. Kind of data set: Primary HTS, single concentration, Cell Titer Glo. The class given is cell-based, human. The conditions noted are these: approximately 10 µM, 72 h, relative to positive control.
The test system of data set [4] is U937. Put plainly: Secondary dose-response HTS, Cell Titer Glo. The conditions noted are these: secondary HTS, 72 h, average of triplicate; read-out: EC50 U937. The class given is cell-based, human.
The subject of data set [5] is U937. Kind of data set: Primary HTS, single concentration, Cell Titer Glo. The class given is cell-based, human. The conditions noted are these: approximately 10 µM, 72 h, relative to positive control.
Data set [6] relates to CMS. Kind of data set: Secondary dose-response HTS, Cell Titer Glo. Type of data set: cell-based, human. As to conditions: secondary HTS, 72 h, average of triplicate; read-out: EC50 CMS.
For data set [7], the system named is CHRF288-11. Kind of data set: Primary HTS, single concentration, Cell Titer Glo. The conditions noted are these: approximately 10 µM, 72 h, relative to positive control. Type of data set: cell-based, human.
For data set [8], the system named is CMS. Put plainly: Primary HTS, single concentration, Cell Titer Glo. As to conditions: approximately 10 µM, 72 h, relative to positive control. Type of data set: cell-based, human.
In data set [9] the test system is CMK. Kind of data set: Secondary dose-response HTS, Cell Titer Glo. As to conditions: secondary HTS, 72 h, average of triplicate; read-out: EC50 CMK. The class given is cell-based, human.
Data set [10] deals with ML-2. Kind of data set: Primary HTS, single concentration, Cell Titer Glo. The conditions noted are these: approximately 10 µM, 72 h, relative to positive control. Type of data set: cell-based, human.
Data set [11] relates to CMK. Kind of data set: Primary HTS, single concentration, Cell Titer Glo. The conditions noted are these: approximately 10 µM, 72 h, relative to positive control. The class given is cell-based, human.
The test system of data set [12] is MOLM-13. Put plainly: Primary HTS, single concentration, Cell Titer Glo. The class given is cell-based, human. As to conditions: approximately 10 µM, 72 h, relative to positive control.
In data set [13] the test system is AML cell lines. Put plainly: Intracellular drug and phosphorylated metabolites by HPLC with liquid scintillation counting. The conditions noted are these: 2 h, 1 µM.
Details of data set [14]: method as in Wang et al., Biol Blood Marrow Transplant 2014 and others. The conditions noted are these: higher cellular concentrations; ref Wang et al., Biol Blood Marrow Transplant 2014 and others; cited from earlier work.
Data set [15] concerns Mll PTD/wt:Flt3 ITD/ITD double knock-in primary transplant blasts (bone marrow, spleen). Kind of data set: Accumulation in primary murine blasts. Type of data set: cell-based, mouse. The conditions noted are these: blasts from bone marrow or spleen. On the procedure: Cells were washed twice with ice-cold PBS; cell pellets were solubilized in 400 µL 1 N NaOH and agitated (300 rpm) at room temperature for 2 h. Then samples were neutralized with […] 1 M HCl; a 25 µL aliquot of lysate was used to estimate protein concentration using a Pierce BCA protein assay kit (Thermo Scientific). Total radioactivity was measured by a Tri-Carb 4810TR liquid scintillation counter (Perkin-Elmer) after mixing the sample with 4 mL of Emulsifier Safe (Perkin Elmer); the results were normalized to total protein content as measured by a Pierce BCA protein assay kit. Three independent experiments were performed in triplicate.
Bone marrow and splenocytes were isolated from mice transplanted with dKI AML and CG-V617 AMKL. Following red blood cells lysis, dKI AML leukemic blasts from vehicle treated mice were evaluated for accumulation of cytarabine and gemcitabine using the uptake assay described above.
Supplementary Figure 5. Accumulation of cytarabine and gemcitabine .
unlabeled and [3H]-cytarabine (Ara- C) or gemcitabine ( Gem ). Intracellular Ara- C, Gem ,
scintillation counting and normalized to protein levels. Representative chromatogram for
as disintegrations per minute (DPM) over complete run time. (c) Percentage of total
independent experiments (N=9). (d) Accumulation was determined in cell lysate of bone
double knock-in primary transplant recipient. […]

The test system of data set [16] is Meg-01. Kind of data set: cells.
In data set [17] the test system is CMS. The class given is cell-based. As to conditions: Homo sapiens, 72 h, read-out: IC50 CMS.
In data set [18] the test system is M07e. Put plainly: cells.
Data set [19] has as its system CBFA2T3-GLIS2/JAK2V617F tertiary transplant leukemic blasts. The class given is cell-based, mouse.
In data set [20] the test system is MKPL. Put plainly: cells.
The test system of data set [21] is CMY. Kind of data set: cells.
For data set [22], the system named is CHRF288-11. Type of data set: cell-based. As to conditions: Homo sapiens, 72 h.
In data set [23] the test system is CMK. Put plainly: cells.
Data set [24] relates to WSU. Kind of data set: cells. As to conditions: Homo sapiens, 72 h, read-out: IC50 (WSU).
Data set [25] has as its system CHRF288-11-luciferase/YFP+ xenograft. Put plainly: In vivo efficacy, survival. The arrangement: species or system NSG mice. The conditions noted are these: CHRF288-11 xenograft, 60 mg kg−1 twice daily for 5 days up to 4 weeks, oral gavage.
Data set [26] is described as follows: Pharmacokinetics of ruxolitinib, single oral dose, plasma LC-MS/MS. The class given is in vivo, mice. The conditions noted are these: mouse, 60 mg kg−1 oral gavage. On the procedure: Data are mean ± standard error (SE) (N = 5 per gender). Concentration-time data were analyzed by non-compartmental analysis and pharmacokinetic parameters were calculated in WinNonLin. c–e, top Kaplan–Meier analysis of animal survival in c CHRF288–11-luciferase/YFP+ xenograft, d CBFA2T3-GLIS2/JAK2V617F-induced AMKL quaternary transplants, and e AMKL patient-derived xenograft.
Animal studies were performed under protocols approved by the Institutional Animal Care and Use Committee at OSU. […] Serial blood collection was performed from 15 min up to 240 min after dose administration.

Data set [27] relates to M-MOK. Kind of data set: cells.
Data set [28] concerns AMKL patient-derived xenograft. Put plainly: In vivo efficacy, survival. The conditions noted are these: AMKL PDX, 60 mg kg−1 twice daily for 5 days up to 4 weeks, oral gavage. The arrangement: species or system NSG-SGM3 mice.

In the case of `CC(/C=C/C(=O)NO)=C\[C@@H](C)C(=O)c1ccc(N(C)C)cc1` [Trichostatin A], in data set [1], the MV4-11 %inh is listed as 81%. The concentration for a half-maximal effect (EC50) turned out to be 40 nM in data set [2], 40 nM in [4], 40 nM in [6] and 50 nM in data set [9]. This compound also showed an M07e %inh in [3] of 147%. Moreover, in data set [5], the U937 %inh came out at 83%. Further, in [7], the CHRF288-11 %inh amounted to 190%. The compound further showed a CMS %inh in data set [8] of 111%. The compound further yielded an ML-2 %inh in data set [10] of 60%. Further, the CMK %inh in [11] worked out at 137%. This compound also came in with an MOLM-13 %inh in data set [12] of 98%.
`Nc1ccn([C@@H]2O[C@H](COP(=O)(O)OP(=O)(O)OP(=O)(O)O)[C@@H](O)C2(F)F)c(=O)n1` [dFdCTP, gemcitabine triphosphate]: the “accumulation of dFdCTP compared to Ara-CTP” value in [13] (AML cell lines) was 7.3–61.2 fold. In addition, in data set [13] (all cell lines evaluated), the “share of the total intracellular accumulation” value is recorded as 58–81%. Further, in [14], the “cellular elimination half-life (biphasic)” value was 15 to 24 h. The “accumulation of dFdCTP versus Ara-CTP” value in data set [15] is 2.4–5.3 fold.
Take `N#CC[C@H](C1CCCC1)n1cc(-c2ncnc3[nH]ccc23)cn1` [Ruxolitinib, ruxolitinib]: the half-maximal inhibitory concentration (IC50) was above 10000 nM in data set [16]; 64 nM in data set [17]; 45 nM in data set [18]; 6300 nM in [20]; 49 nM in data set [21]; 103 nM in data set [22] (read-out: IC50, ruxolitinib + BMP2, CHRF288-11, 72 h, with 100 ng mL−1 BMP2). In addition, the IC50 was found to be 142 nM in [22] (read-out: IC50, ruxolitinib + EPO, CHRF288-11, 72 h, with 100 ng mL−1 EPO); 480 nM in [22] (read-out: IC50, ruxolitinib + TPO, CHRF288-11, 72 h, with 100 ng mL−1 TPO); 119 nM in [22] (read-out: IC50, ruxolitinib alone (Fig. 6g), CHRF288-11, 72 h, without cytokine); 143 nM in data set [22] (read-out: IC50 CHRF288-11, 72 h, Cell Titer Glo); 142 nM in data set [23]; 8.7 nM in data set [24]. In addition, the half-inhibitory concentration (IC50) in data set [27] turned out to be 6.4 nM. Further, the “sensitivity of primary murine blasts” value in data set [19] is on record as “sensitive”. The Median survival in data set [25] is reported as 31 days; in [28], 43 days. The exposure AUC(0-t) worked out at 16.8 ± 10.8 µM·h in data set [26] (BoyJ, Female); 17.9 ± 6.5 µM·h in data set [26] (BoyJ, Male); 4.8 ± 0.6 µM·h in [26] (NSG, Female); 4.1 ± 0.6 µM·h in [26] (NSG, Male). The Cmax worked out at 18.1 ± 10.6 µM in data set [26] (BoyJ, Female); 28.6 ± 10.6 µM in data set [26] (BoyJ, Male); 6.9 ± 1.7 µM in [26] (NSG, Female); 5.5 ± 1.7 µM in data set [26] (NSG, Male). Besides, the Tmax was 0.25 h in [26] (BoyJ, Female); 0.25 h in data set [26] (BoyJ, Male); 0.25 h in data set [26] (NSG, Female); 0.25 h in data set [26] (NSG, Male). Also, the half-life was 2.03 ± 1.1 h in data set [26] (BoyJ, Female); 2.64 ± 1.74 h in data set [26] (BoyJ, Male); 1.26 ± 0.48 h in [26] (NSG, Female); 1.32 ± 0.74 h in [26] (NSG, Male).

Source of the values: paper PMC6522510 (Nature Communications, 2019).
